This experiment relates to SNU761-EV cells. The experiment is described as follows: Western blotting of SLAMF7 expression, control SNU761 cells. Format: cell-based, human. Particulars: SNU761-EV (FIG. 13d). On the procedure: Cell extracts were obtained from cells grown to a density of 70-80% without any treatment, or from cells treated with vehicle DMSO or drugs at the given concentrations for 24 hours. For the extract of hepatocytes or liver cancer cells, a lysis buffer (150 mM NaCl, 1% NP-40, 50 mM Tris-HCl, 0.25% sodium deoxycholate, pH 7.4) including a protease inhibitor cocktail (GenDEPOT) was used. In addition, after washing animal liver tissue twice with PBS, SDS, Na3VO4, and protease inhibitor cocktails (GenDEPOT) were added to a lysis buffer [50 mM Tris-HCl, pH 7.4, 1% NP40, 0.25% sodium deoxycholate, 150 mM NaCl, 1 mM EDTA (based on 500 ml)], followed by treatment at 4°C for 15 minutes. […] After quantification using BCA reagent (Thermo Scientific), a 4 × sample buffer [100% glycerol 4 ml, Tris-HCl, pH 6.8, 2.4 ml, SDS 0.8 g, Bromophenol blue 4 mg, betamercaptoethanol 0.4 ml, H2O 3.1 ml (based on 10 ml)] was added, followed by boiling at 100°C for 5 minutes. […]
After 24 hours, vehicle DMSO, drug ST-1-025, or ST-5-002 was treated at the given concentrations. […] (f) After treating NK92-EV or NK92-TM4SF5 cells with DMSO or drugs ST-2-001 (1 nM), ST-3-005 (10 nM or 1 µM), ST-5-001, or ST-5-002 (100 nM or 1 µM) for 24 hours, the expression of SLAMF7 expressed on the cell surface was analyzed through immunostaining using flow cytometry. […]

Take `Cc1ccc(C(=O)Nc2ccc(-c3cc(-c4ccc(O)cc4)no3)cc2)cc1` [ST-5-002, N-(4-(3-(4-hydroxyphenyl)isoxazole-5-yl)phenyl)-4-methylbenzamide]: the “expression of SLAMF7” value is “lowered”.

Values taken from EP4772500A1, “NOVEL ISOXAZOLE COMPOUND AS TM4SF5-SPECIFIC INHIBITOR AND USE THEREOF” (Seoul National University R&DB Foundation, priority 2023, dated 2025).
